Source: patent publication US20260000656A1, “ANTIFUNGAL AGENTS WITH ENHANCED ACTIVITY IN ACIDIC PH” (Scynexis, Inc., priority 2017, published 2026)
Values after ≈ are worked out from the molar mass of the structure shown. Where two headings read alike, the source gives them in different places.

Columns and labels:
[1] = tested on: C. albicans isolates; test: Broth microdilution susceptibility (CLSI M27-A3) at different medium pH; assay type: cell-based, Candida albicans; conditions: Candida albicans, 24 h, pH 7, C. albicans MRL 34449, pH 7.0, 24 hours; read-out: MIC (100% inhibition)
Description: (§1) Ten strains each of C. glabrata and C. albicans vaginal isolates were tested. The strains were obtained from recent clinical trial patients with vulvovaginal candidiasis (VVC) prior to treatment. Candida strains were obtained from the Mycology Reference Library (MRL) at Case Western Reserve University School of Medicine, Ohio, United States.
(§2) Susceptibility testing was performed using a broth microdilution method, according to CLSI M27-A3 guidelines (CLSI. 2008. Reference Method for Broth Dilution Antifungal Susceptibility Testing of Yeasts; Approved Standard—Third Edition. Clinical and Laboratory Standards Institute, CLSI document M27-A3). Antifungals and concentrations tested were SCY-078 and micafungin (both at concentrations within the range of 0.015 to 8 μg/ml) and fluconazole (at concentrations within the range of 0.125 to 64 μg/ml). A 0.1-ml C. albicans and C. glabrata inoculum of 0.5-2.5×10^3 blastospores/ml in RPMI 1640 medium was added to each microdilution well. ATCC strains of Candida parapsilosis and Candida krusei QC isolates were also included concurrently to ensure quality control. Antifungal susceptibility testing was carried out for each isolate in RPMI 1640 at pH 7 (to mimic RPMI medium used in testing the susceptibility of yeast by the CLSI M-27A3 document), pH 5.7, and pH 4.5 (to mimic the pH of the vaginal cavity) by adjusting the pH of the media using NaOH or HCl. […] Agents Chemother., 43: 1383-1386 (1999).
(§3) […] SCY-078 powder was manufactured by Avista, Laboratories, NC. Micafungin and fluconazole were sourced from LGM Pharma.

[2] = tested on: C. glabrata isolates; test: as above; assay type: cell-based, Candida glabrata; conditions: for MIC50 / MIC90 / MIC: Nakaseomyces glabratus, 24 h; for MIC50: read-out: MIC50; for MIC90: read-out: MIC90
Description: as §1, §2, §3

[3] = pH 4.5, 50% inhibition, pH 4.5, 24 h, 10 vaginal isolates
[4] = pH 4.5, 100% inhibition, pH 4.5, 24 hours, 10 isolates
[5] = pH 5.72, 50% inhibition, pH 5.72, 24 h, 10 vaginal isolates
[6] = pH 5.72, 100% inhibition, pH 5.72, 24 hours, 10 isolates

MIC [1]: 0.5 µg/mL (≈ 0.685 µM)
MIC range ([2]; 50% inhibition, pH 4.5, 24 h, 10 vaginal isolates): 0.031 to 0.063 µg/mL
MIC range ([2]; 50% inhibition, pH 5.72, 24 h, 10 vaginal isolates): 0.5 µg/mL (≈ 0.685 µM)
MIC range ([2]; 50% inhibition, pH 7.0, 24 h, 10 vaginal isolates): 0.5 to 1 µg/mL
MIC range ([2]; 100% inhibition, pH 4.5, 24 hours, 10 isolates): 0.063 to 0.125 µg/mL
MIC range ([2]; 100% inhibition, pH 5.72, 24 hours, 10 isolates): 1 µg/mL (≈ 1.37 µM)
MIC range ([2]; 100% inhibition, pH 7.0, 24 hours, 10 isolates): 1 to 2 µg/mL
reduction in MIC50 at pH 4.5 compared to the MIC50 at pH 7.0 ([2]; C. glabrata isolates): 16 fold
MIC50 [2, 3]: 0.063 µg/mL (≈ 0.0863 µM)
MIC90 [2, 3]: 0.063 µg/mL (≈ 0.0863 µM)
MIC50 [2, 4]: 0.125 µg/mL (≈ 0.171 µM)
MIC90 [2, 4]: 0.125 µg/mL (≈ 0.171 µM)
MIC ([2]; pH 4.5, C. glabrata MRL 32075, pH 4.5, 24 hours, read-out: MIC (50% inhibition)): 0.063 µg/mL (≈ 0.0863 µM)
MIC ([2]; pH 4.5, C. glabrata MRL 32075, pH 4.5, 24 hours, read-out: MIC (100% inhibition)): 0.125 µg/mL (≈ 0.171 µM)
MIC ([2]; pH 4.5, C. glabrata MRL 32232, pH 4.5, 24 hours, read-out: MIC (50% inhibition)): 0.063 µg/mL (≈ 0.0863 µM)
MIC ([2]; pH 4.5, C. glabrata MRL 32232, pH 4.5, 24 hours, read-out: MIC (100% inhibition)): 0.125 µg/mL (≈ 0.171 µM)
MIC ([2]; pH 4.5, C. glabrata MRL 32626, pH 4.5, 24 hours, read-out: MIC (50% inhibition)): 0.063 µg/mL (≈ 0.0863 µM)
MIC ([2]; pH 4.5, C. glabrata MRL 32626, pH 4.5, 24 hours, read-out: MIC (100% inhibition)): 0.125 µg/mL (≈ 0.171 µM)
MIC ([2]; pH 4.5, C. glabrata MRL 32993, pH 4.5, 24 hours, read-out: MIC (50% inhibition)): 0.031 µg/mL (≈ 0.0425 µM)
MIC ([2]; pH 4.5, C. glabrata MRL 32993, pH 4.5, 24 hours, read-out: MIC (100% inhibition)): 0.063 µg/mL (≈ 0.0863 µM)
MIC ([2]; pH 4.5, C. glabrata MRL 33204, pH 4.5, 24 hours, read-out: MIC (50% inhibition)): 0.031 µg/mL (≈ 0.0425 µM)
MIC ([2]; pH 4.5, C. glabrata MRL 33204, pH 4.5, 24 hours, read-out: MIC (100% inhibition)): 0.063 µg/mL (≈ 0.0863 µM)
MIC ([2]; pH 4.5, C. glabrata MRL 33960, pH 4.5, 24 hours, read-out: MIC (50% inhibition)): 0.031 µg/mL (≈ 0.0425 µM)
MIC ([2]; pH 4.5, C. glabrata MRL 33960, pH 4.5, 24 hours, read-out: MIC (100% inhibition)): 0.063 µg/mL (≈ 0.0863 µM)
MIC ([2]; pH 4.5, C. glabrata MRL 33961, pH 4.5, 24 hours, read-out: MIC (50% inhibition)): 0.063 µg/mL (≈ 0.0863 µM)
MIC ([2]; pH 4.5, C. glabrata MRL 33961, pH 4.5, 24 hours, read-out: MIC (100% inhibition)): 0.063 µg/mL (≈ 0.0863 µM)
MIC ([2]; pH 4.5, C. glabrata MRL 34339, pH 4.5, 24 hours, read-out: MIC (50% inhibition)): 0.063 µg/mL (≈ 0.0863 µM)
MIC ([2]; pH 4.5, C. glabrata MRL 34339, pH 4.5, 24 hours, read-out: MIC (100% inhibition)): 0.125 µg/mL (≈ 0.171 µM)
MIC ([2]; pH 4.5, C. glabrata MRL 34407, pH 4.5, 24 hours, read-out: MIC (50% inhibition)): 0.063 µg/mL (≈ 0.0863 µM)
MIC ([2]; pH 4.5, C. glabrata MRL 34407, pH 4.5, 24 hours, read-out: MIC (100% inhibition)): 0.125 µg/mL (≈ 0.171 µM)
MIC ([2]; pH 4.5, C. glabrata MRL 34576, pH 4.5, 24 hours, read-out: MIC (50% inhibition)): 0.063 µg/mL (≈ 0.0863 µM)
MIC ([2]; pH 4.5, C. glabrata MRL 34576, pH 4.5, 24 hours, read-out: MIC (100% inhibition)): 0.125 µg/mL (≈ 0.171 µM)
MIC50 [2, 5]: 0.5 µg/mL (≈ 0.685 µM)
MIC90 [2, 5]: 0.5 µg/mL (≈ 0.685 µM)
MIC50 [2, 6]: 1 µg/mL (≈ 1.37 µM)
MIC90 [2, 6]: 1 µg/mL (≈ 1.37 µM)
MIC ([2]; pH 5.72, C. glabrata MRL 32075, pH 5.72, 24 hours, read-out: MIC (50% inhibition)): 0.5 µg/mL (≈ 0.685 µM)
MIC ([2]; pH 5.72, C. glabrata MRL 32075, pH 5.72, 24 hours, read-out: MIC (100% inhibition)): 1 µg/mL (≈ 1.37 µM)
MIC ([2]; pH 5.72, C. glabrata MRL 32232, pH 5.72, 24 hours, read-out: MIC (50% inhibition)): 0.5 µg/mL (≈ 0.685 µM)
MIC ([2]; pH 5.72, C. glabrata MRL 32232, pH 5.72, 24 hours, read-out: MIC (100% inhibition)): 1 µg/mL (≈ 1.37 µM)
SMILES: CC(C)[C@@H](C)[C@@]1(C)CC[C@]2(C)[C@H]3CC[C@@H]4[C@@]5(COC[C@]4(C)[C@@H](OC[C@](C)(N)C(C)(C)C)[C@H](n4ncnc4-c4ccncc4)C5)C3=CC[C@@]2(C)[C@@H]1C(=O)O [SCY-078]
